Results as given in US11072602B2, “Antidiabetic heterocyclic compounds” (Merck Sharp & Dohme Corp., priority 2016, dated 2021).

Target: T1, human GPR40 (Homo sapiens, UniProt O14842)
T1 construct: expressed in transfected cells
Assay: Inositol Phosphate Turnover (IP1) Assay
Format: cell-based
Conditions: HEK cells stably expressing human GPR40, 7500 cells per well, CisBio IP-One kit
Protocol: Human GPR40 stable cell-lines were generated in HEK cells. The expression plasmids were transfected using lipofectamine (Life Technologies) following manufacturer's instructions. Stable cell-lines were generated following drug selection and single cell cloning.
The assay was performed in 384-well format. HEK cells stably expressing human GPR40 were plated at 7500 cells per well in growth medium (DMEM/10% fetal calf serum). Cell plates were then incubated 16 hours at 37 degrees in a 5% CO2 incubator. Measurement of Inositol Phosphate Turnover (IP1) was performed using the CisBio IP-One kit (Part number 62IPAPEB). After the 16 hour incubation, the growth media was removed by centrifugation using the BlueWasher (AusWasher GUI Ver. v1.0.1.8) Protocol #21-“Light Dry” and 10 ul of stimulation buffer (prepared as described in the kit) was added to each well. In a separate plate, compounds were diluted in DMSO (200-fold over the final concentration in the assay well) and 50 nl was acoustically transferred to the appropriate well in the assay cell plate. The plates were then incubated for 60 minutes at 37 degrees in a 5% CO2 incubator. 10 ul of detection buffer (also prepared as described in the IP-One kit) was added to each well and the plates were incubated at room temperature for 60 minutes in the dark. The plates were then read in a Perkin Elmer EnVision or equivalent reader able to measure FRET. Fluorescent ratio of emission at 665 and 620 nm was then converted to IP1 concentration by back calculating from an IP1 standard curve prepared at the time of the assay. Data was normalized to % activity using a reference compound and EC50s determined using a standard 4-parameter fit.

T1 sequence (O14842 whole entry): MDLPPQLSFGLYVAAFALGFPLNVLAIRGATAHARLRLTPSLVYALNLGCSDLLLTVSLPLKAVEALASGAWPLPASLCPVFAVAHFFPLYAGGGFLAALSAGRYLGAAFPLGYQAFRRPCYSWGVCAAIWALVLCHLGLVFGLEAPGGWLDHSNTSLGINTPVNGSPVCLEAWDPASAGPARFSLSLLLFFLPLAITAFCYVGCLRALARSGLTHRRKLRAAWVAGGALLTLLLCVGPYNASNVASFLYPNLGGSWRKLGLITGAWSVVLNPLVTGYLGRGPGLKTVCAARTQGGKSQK

Row | Compound | EC50
1 | C[C@H](C(=O)O)[C@H](c1ccc2c(c1)OC(C1CC3CCC(C1)N3[C@@H](C)c1cc(C(F)(F)F)ccc1C(F)(F)F)CC2)C1CC1 (stereo partly drawn) [Example 13, (2S,3R)-3-(2-((1R5S)-8-((S)-1-(2,5-bis(trifluoromethyl)phenyl)ethyl)-8-azabicyclo[3.2.1]octan-3-yl)chroman-7-yl)-3-cyclopropyl-2-methylpropanoic Acid] | 11.9 nM
2 | C[C@H](C(=O)O)[C@H](c1ccc2c(c1)OC(C1[C@@H]3COC[C@H]1CN([C@@H](C)c1cc(F)ccc1C(F)(F)F)C3)CC2)C1CC1 (single isomer, unassigned) [Example 7] | 11.2 nM
3 | C[C@H](C(=O)O)[C@H](c1ccc2c(c1)OC(C1[C@@H]3CC[C@@H]1CN([C@@H](C)c1cc(F)ccc1C(F)(F)F)C3)CC2)C1CC1 (single isomer, unassigned) [Example 28, (2S,3R)-3-cyclopropyl-3-((2R or 2S)-2-((1R,5S)-3-((S)-1-(5-fluoro-2-(trifluoromethyl)phenyl)ethyl)-3-azabicyclo[3.2.1]-octan-8-yl)chroman-7-yl)-2-methylpropanoic acid] | 28.7 nM
4 | C[C@H](C(=O)O)[C@H](c1ccc2c(c1)OC(C1C3COCC1CN([C@@H](C)c1cc(C(F)(F)F)ccc1C(F)(F)F)C3)CC2)C1CC1 (stereo partly drawn) [Example 5, (2S,3R)-3-(2-((1R,5S)-7-((S)-1-(2,5-bis(trifluoro-methyl)phenyl)ethyl)-3-oxa-7-azabicyclo[3.3.1]-nonan-9-yl)chroman-7-yl)-3-cyclopropyl-2-methyl-propanoic acid] | 33.8 nM
5 | CC(C(=O)O)C(c1ccc2c(c1)OC(C1CC3CCCC(C1)N3C(C)c1cc(F)ccc1C(F)(F)F)CC2)C1CC1 (single isomer, unassigned) [Example 35] | 90.9 nM
6 | C[C@H](C(=O)O)[C@H](c1ccc2c(c1)OC(C13CCN([C@H](C)c4cc(F)ccc4OC(F)(F)F)C(C1)C3)CC2)C1CC1 (single isomer, unassigned) [Example 44] | 2.14 nM
7 | C[C@H](C(=O)O)[C@H](c1ccc2c(c1)OC(C1[C@@H]3CC[C@@H]1CN([C@@H](C)c1cc(F)ccc1C(F)(F)F)C3)CC2)C1CC1 (single isomer, unassigned) [Example 30, (2S,3R)-3-cyclopropyl-3-((2R or 2S)-2-((1R,5S)-3-((S)-1-(5-fluoro-2-(tri-fluoromethyl)phenyl)eth-yl)-3-azabicyclo[3.2.1]-octan-8-yl)chroman-7-yl)-2-methylpropanoic acid] | 453 nM
8 | C[C@H](C(=O)O)[C@H](c1ccc2c(c1)OC(CC1CCN([C@H](C)c3cc(C(F)(F)F)ccc3C(F)(F)F)CC1)CC2)C1CC1 (mixture of isomers) [Example 9, (2S,3R)-3-((RS)-2-((1-((R)-1-(2,5-bis(trifluoromethyl)phenyl)ethyl)piperidin-4-yl)-methyl)chroman-7-yl)-3-cyclopropyl-2-methylpropanoic Acid] | 63.7 nM
9 | C[C@H](C(=O)O)[C@H](c1ccc2c(c1)OC(C1[C@@H]3CC[C@H]1CN([C@H](C)c1cc(C(F)(F)F)ccc1C(F)(F)F)C3)CC2)C1CC1 (mixture of isomers) [Example 22, (2S,3R)-3-(2-((1R,5S)-3-((R)-1-(2,5-bis(trifluoromethyl)phenyl)ethyl)-3-azabicyclo[3.2.1]octan-8-yl)chroman-7-yl)-3-cyclopropyl-2-methylpropanoic Acid] | 45.6 nM
10 | C[C@H](C(=O)O)[C@H](c1ccc2c(c1)OC(C1[C@@H]3CC[C@@H]1CN([C@@H](C)c1cc(F)ccc1C(F)(F)F)C3)CC2)C1CC1 (single isomer, unassigned) [Example 31, (2S,3R)-3-cyclopropyl-3-((2R or 2S)-2-((1R,5S)-3-((S)-1-(5-fluoro-2-(trifluoromethyl)phenyl)ethyl)-3-azabicyclo[3.2.1]-octan-8-yl)chroman-7-yl)-2-methylpropanoic acid] | 32.6 nM
11 | C[C@H](C(=O)O)[C@H](c1ccc2c(c1)OC(C1[C@@H]3CC[C@H]1CN([C@@H](C)c1cc(F)ccc1C(F)(F)F)C3)CC2)C1CC1 (single isomer, unassigned) [Example 29] | 72.8 nM
12 | C[C@H](C(=O)O)[C@H](c1ccc2c(c1)OC(C1CC3CC1CN3[C@H](C)c1cc(C(F)(F)F)ccc1C(F)(F)F)CC2)C1CC1 (stereo partly drawn) [Example 17, (2S,3R)-3-(2-((1S,4S)-2-((R)-1-(2,5-bis(trifluoromethyl)-phenyl)ethyl)-2-azabicyclo-[2.2.1]heptan-5-yl)chroman-7-yl)-3-cyclopropyl-2-methyl-propanic acid] | 0.688 nM
13 | C[C@H](C(=O)O)[C@H](c1ccc2c(c1)OC(C1CC3CC1CN3[C@H](C)c1cc(F)ccc1C(F)(F)F)CC2)C1CC1 (single isomer, unassigned) [Example 20] | 13.4 nM
14 | C[C@H](C(=O)O)[C@H](c1ccc2c(c1)OC(C13CCN([C@H](C)c4cc(F)ccc4OC(F)(F)F)C(C1)C3)CC2)C1CC1 (single isomer, unassigned) [Example 43] | 60.6 nM
15 | C[C@H](C(=O)O)[C@H](c1ccc2c(c1)OC(C1[C@@H]3COC[C@H]1CN([C@@H](C)c1cc(F)ccc1C(F)(F)F)C3)CC2)C1CC1 (single isomer, unassigned) [Example 8] | 11.2 nM
16 | C[C@H](C(=O)O)[C@H](c1ccc2c(c1)OC(CC1CCN([C@H](C)c3cc(C(F)(F)F)ccc3C(F)(F)F)CC1)CC2)C1CC1 (single isomer, unassigned) [Example 10, (2S,3R)-3-((R or S)-2-((1-((R)-1-(2,5-bis(trifluoromethyl)phenyl)ethyl)piperidin-4-yl)-methyl)chroman-7-yl)-3-cyclopropyl-2-methylpropanoic Acid] | 29.3 nM
17 | C[C@H](C(=O)O)[C@H](c1ccc2c(c1)OC(C1CC3CCC(C1)N3[C@H](C)c1cc(F)ccc1C(F)(F)F)CC2)C1CC1 (stereo partly drawn) [Example 15, (2S,3R)-3-cyclopropyl-3-(2-((1R,5S)-8-((R)-1-(5-fluoro-2-(trifluoromethyl)-phenyl)ethyl)-8-aza-bicyclo[3.2.1]octan-3-yl)chroman-7-yl)-2-methylpropanoic acid] | 17.5 nM
18 | C[C@H](C(=O)O)[C@H](c1ccc2c(c1)OC(CC1CCN([C@@H](C)c3cc(C(F)(F)F)ccc3C(F)(F)F)CC1)CC2)C1CC1 (mixture of isomers) [Example 12, (2S,3R)-3-((RS)-2-((1-((S)-1-(2,5-bis(trifluoro-methyl)phenyl)ethyl)piperi-din-4-yl)methyl)-chroman-7-yl)-3-cyclopropyl-2-methyl-propanoic acid] | 22.3 nM
19 | CC(c1cc(F)ccc1OC(F)(F)F)N1CC2CC1CC2C1CCc2ccc([C@H](C3CC3)[C@H](C)C(=O)O)cc2O1 (single isomer, unassigned) [Example 37, (2S,3R)-3-cyclopropyl-3-((R or S)-2-((R or S,R or S)-2-((RS)-1-(5-fluoro-2-(trifluoro-methoxy)-phenyl)ethyl)-2-aza-bicyclo[2.2.1]heptan-5-yl)-chroman-7-yl)-2-methyl-propanoic acid] | 71.4 nM
20 | CC(c1cc(F)ccc1C(F)(F)F)N1CC2CC1CC2C1CCc2ccc([C@H](C3CC3)[C@H](C)C(=O)O)cc2O1 (mixture of isomers) [Example 39, (2S,3R)-3-cyclopropyl-3-((R or S)-2-((R or S,R or S)-2-((RS)-1-(5-fluoro-2-(trifluoromethyl)-phenyl)ethyl)-2-azabicyclo-[2.2.1]heptan-5-yl)chroman-7-yl)-2-methylpropanoic acid] | 44.1 nM
21 | C[C@H](C(=O)O)[C@H](c1ccc2c(c1)OC(C1[C@@H]3CC[C@H]1CN([C@@H](C)c1cc(F)ccc1C(F)(F)F)C3)CC2)C1CC1 (single isomer, unassigned) [Example 26] | 9.68 nM
22 | C[C@H](C(=O)O)[C@H](c1ccc2c(c1)OC(C1C3COCC1CN([C@H](C)c1cc(C(F)(F)F)ccc1C(F)(F)F)C3)CC2)C1CC1 (stereo partly drawn) [Example 3, (2S,3R)-3-(2-((1R,5S)-7-((R)-1-(2,5-bis(trifluoromethyl)phenyl)ethyl)-3-oxa-7-azabicyclo[3.3.1]nonan-9-yl)chroman-7-yl)-3-cyclopropyl-2-methylpropanoic acid] | 20.3 nM
23 | C[C@H](C(=O)O)[C@H](c1ccc2c(c1)OC(C1C[C@@H]3C[C@@H]1CN3[C@@H](C)c1cc(C(F)(F)F)ccc1C(F)(F)F)CC2)C1CC1 (stereo partly drawn) [Example 16, (2S,3R)-3-(2-((1S,4S)-2-((S)-1-(2,5-bis(trifluoromethyl)phenyl)ethyl)-2-aza-bicyclo-[2.2.1]heptan-5-yl)chroman-7-yl)-3-cyclopropyl-2-methylpropanoic Acid] | 1.28 nM
24 | C[C@H](C(=O)O)[C@H](c1ccc2c(c1)OC(C1[C@@H]3CC[C@@H]1CN([C@@H](C)c1cc(C(F)(F)F)ccc1C(F)(F)F)C3)CC2)C1CC1 (single isomer, unassigned) [Example 24] | 9.66 nM
25 | C[C@H](C(=O)O)[C@H](c1ccc2c(c1)OC(C13CCN([C@@H](C)c4cc(F)ccc4OC(F)(F)F)C(C1)C3)CC2)C1CC1 (stereo partly shown) [Example 42] | 2.09 nM
